Measurements taken from the NIST ThermoML archive (doi:10.1021/je900596d).

Details: 355.18 K, Liquid, Vibrating tube method

FC(F)=C(F)C(F)(F)F [hexafluoropropene]
Details | mass density [kg/m3]
5808.2 kPa | 1056.73
5848.7 kPa | 1058.05
5893.8 kPa | 1059.3
5935.5 kPa | 1060.51
5972.8 kPa | 1061.59
6013.5 kPa | 1062.81
6113.5 kPa | 1065.75
6163.2 kPa | 1067.09
6213.3 kPa | 1068.54
6263.6 kPa | 1069.94
6313.1 kPa | 1071.25
6362.4 kPa | 1072.65
6411 kPa | 1074
6461.2 kPa | 1075.29
6562.7 kPa | 1077.95
6611.5 kPa | 1079.21
6661.1 kPa | 1080.53
6710.9 kPa | 1081.81
6761.1 kPa | 1083.05
6812.8 kPa | 1084.3
6865.2 kPa | 1085.67
6915.7 kPa | 1086.78
6965.9 kPa | 1088.01
7014.9 kPa | 1089.29
7065.8 kPa | 1090.44
7164.6 kPa | 1092.85
7216.4 kPa | 1093.92
7265.8 kPa | 1095.06
7366.2 kPa | 1097.33
7415.2 kPa | 1098.43
7466 kPa | 1099.6
7516.3 kPa | 1100.77
7566.3 kPa | 1101.91
7616.2 kPa | 1102.85
7718.1 kPa | 1105.05
7768.7 kPa | 1106.11
7817.3 kPa | 1107.12
7868.8 kPa | 1108.17
7921.6 kPa | 1109.13
7971.5 kPa | 1110.3
8069.1 kPa | 1112.3
8121.2 kPa | 1113.23
8171.1 kPa | 1114.28
8220.8 kPa | 1115.22
8273.9 kPa | 1116.3
8324.3 kPa | 1117.22
8376.9 kPa | 1118.25
8428.6 kPa | 1119.32
8478.5 kPa | 1120.28
8528.9 kPa | 1121.22
8578.5 kPa | 1122.06
8628.9 kPa | 1123.04
8681.5 kPa | 1124
8731.5 kPa | 1124.98
8781.2 kPa | 1125.78
8835.2 kPa | 1126.86
8886.8 kPa | 1127.78
8989.2 kPa | 1129.56
9039.4 kPa | 1130.46
9089.8 kPa | 1131.27
9138.1 kPa | 1132.17
9187.7 kPa | 1132.92
9238.4 kPa | 1133.87
9290.5 kPa | 1134.77
9339.3 kPa | 1135.6
9390.7 kPa | 1136.39
9440.4 kPa | 1137.24
